Results reported in patent publication US10357536B2, “Anti-pathogenic methods” (Hexima Limited, priority 2012, dated 2019).
“Also recorded” adds a separate entry of the source. No end group written: not given here.

Columns and labels:
[1] = system: Fgr hyphae; format: cell-based, Fusarium graminearum
[2] = system: hyphal cells; format: cell-based
[3] = system: Fov hyphae; format: cell-based, Fusarium oxysporum f. sp vasinfectum

| Substance | Permeability index [1] | Permeabilizing [2] | permeabilization of Fgr hyphae (SYTOX green uptake), in words [1] | Permeability index [3] | permeabilization of Fov hyphae (SYTOX green uptake), in words [3] |
| --- | --- | --- | --- | --- | --- |
| HXL001: Class I plant defensin, Zea mays, mature domain SEQ ID NO: 3 (RHCLSQSHRFKGLCMSSNNCANVCETQNFPGGECKAEGATRKCFCKKIC; HXL001 Zea mays mature domain) | 0.9 | Yes | – | – | – |
| NaD1: Class II plant defensin, Nicotiana alata, accession Q8GTM0; positive control of the permeabilization assay (RECKTESNTFPGICITKPPCRKACISEKFTDGHCSKILRRCLCTKPC; UniProt Q8GTM0 26-72, looked up) [reference compound] | 1.0 | Yes | significantly more permeabilisation of Fgr hyphae; also recorded: permeabilizing | 1.0 | able to permeabilize Fov hyphae; also recorded: permeabilizing |
| Hordothionin: Class I plant defensin, Hordeum vulgare, accession P20230 | 0.4 | No | non-permeabilizing | – | – |
| RsAFP2: Class I plant defensin, Raphanus sativus, accession P30230 (QKLCQRPSGTWSGVCGNNNACKNQCIRLEKARHGSCNYVFPAHKCICYFPC; ends and bridges not checked; cysteine pairing not given here; UniProt P30230 30-80, looked up) | 0.3 | No | non-permeabilizing | – | – |
| HXL007: Class I plant defensin, Cyamopsis tetragonoloba, mature domain SEQ ID NO: 21 (RTCESLADTYRGPCFTDGSCDDHCKNKEHLISGRCRNDFRCWCTRNC; HXL007 Cyamopsis tetragonoloba mature domain) | – | Yes | – | 1.2 | able to permeabilize Fov hyphae; also recorded: permeabilizing |
| HXP4: artificial variant defensin, SEQ ID NO: 70 (RECKTESHRFKGPCITKPPCRKACISEKFTDGHCSKILRRCLCTKPC; Amino acid sequence of HXP4 (NaD2 Loop1B [NaD2L1B] in NaD1)) | 1.3 | Yes | significantly more permeabilisation of Fgr hyphae; also recorded: permeabilizing | 0.7 | able to permeabilize Fov hyphae; also recorded: permeabilizing |
| HXL021: Class I plant defensin, Arachis hypogaea, mature domain SEQ ID NO: 63 (ATCENLADTYRGPCFTTGSCDDHCKNKEHLLSGRCRDDFRCWCTRNC; HXL021 Arachis hypogaea mature domain aa) | 0.5 | No | non-permeabilizing | – | – |
| VP45: Class I plant defensin, Zea mays, mature domain SEQ ID NO: 83 (TVCMRHNNFYHGPCMSNKDCANSCVQHNLGVGGYCRGKIPFNKECMCTFEC; VP45 mature domain) | – | No | – | – | – |
| HXP34: artificial variant defensin, SEQ ID NO: 71 (RECKTESQHHSFPCITKPPCRKACISEKFTDGHCSKILRRCLCTKPC; Amino acid sequence of HXP34 (Zea2 Loop1B [Zea2L1B] in NaD1)) | – | Yes | – | – | – |
| VP42: Class I plant defensin, Triticum aestivum, mature domain SEQ ID NO: 81 (RHCESQSHRYRGACWRDDNCKHVCNTEGFPSGKCKFHGFESKCVCTKPC; VP42 mature domain) | – | No | – | – | – |
| HXL015: Class I plant defensin, Oryza sativa, mature domain SEQ ID NO: 45 (RHCLSQSHRFKGMCVSSNNCANVCRTESFPDGECKSHGLERKCFCKKVC; HXL015 Oryza sativa mature domain aa) | – | No | – | – | – |
| HXL013: Class I plant defensin, Glycine max, mature domain SEQ ID NO: 39; Table 2 gives SBI6 the same SEQ ID NO (KDCLTRRHGFQGRCLFDRQCAHVCRSDGPIGGQCRGPLRKCFCSRPC; HXL013 Glycine max mature domain aa) | 1.4 | Yes | permeabilizing | – | – |
| HXL004: Class I plant defensin, Nicotiana benthamiana, mature domain SEQ ID NO: 12 (RTCESQSHRFKGLCFSRSNCASVCHTEGFNGGHCRGFRRRCFCTRHC; HXL004 Nicotiana benthamiana mature domain aa) | 1.6 | Yes | significantly more permeabilisation of Fgr hyphae; also recorded: permeabilizing | – | – |
| HXL005: Class I plant defensin, Taraxacum kok-saghyz, mature domain SEQ ID NO: 15 (KMCQTTSHAFSCVNDSGCSGSCEKQGFASGKCDGVRRRCTCYKKC; HXL005 Taraxacum kok-saghyz mature domain) | – | No | – | – | – |
| HXL002: Class I plant defensin, Triticum aestivum, mature domain SEQ ID NO: 6 (RDCLSQSHKFKGACLSSSNCAAVCRTENFPDGECHTHNFARKCFCKRAC; HXL002 Triticum aestivum mature domain) | 1.0 | Yes | significantly more permeabilisation of Fgr hyphae; also recorded: permeabilizing | 0.9 | able to permeabilize Fov hyphae; also recorded: permeabilizing |
| HXP35: artificial variant defensin, SEQ ID NO: 72 (RECKTESDTYRGVCITKPPCRKACISEKFTDGHCSKILRRCLCTKPC; Amino acid sequence of HXP35 (PsD1 Loop1B [PsDL1B] in NaD1)) | – | Yes | – | – | – |
| NoD173: Class II plant defensin, Nicotiana occidentalis, mature domain SEQ ID NO: 98 (RQCKAESNTFTGICIAKPPCRQACIREKFTDGHCSKVLRRCLCTKRC; NoD173 Nictoniana occidentalis) | – | Yes | – | – | – |
| VP135: Class I plant defensin, Picramnia pentandra, mature domain SEQ ID NO: 85 (RICSSLSHGYKGPCASDHNCALVCRNEGFSGGDCHGLRRRCFCTKAC; VP135 mature domain) | – | No | – | – | – |
| HXL009: Class I plant defensin, Zea mays, mature domain SEQ ID NO: 27 (TVCMRHNNFYHGPCMSNKDCANSCVQHNLGVGGYCRGKIPFNKECMCTFEC; HXL009 Zea mays mature domain aa) | 0.4 | No | non-permeabilizing | – | – |
| HXL008: Class I plant defensin, Picramnia pentandra, mature domain SEQ ID NO: 24 (KVCTKPSKFFKGLCGTDGACTTACRKEGLHSGYCQLKGFLNSVCVCRKHC; HXL008 Picramnia pentandra mature domain aa) | 0.9 | Yes | significantly more permeabilisation of Fgr hyphae; also recorded: permeabilizing | 0.8 | able to permeabilize Fov hyphae; also recorded: permeabilizing |
